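These data come from cells grown in 96-well plates and exposed to compound for 48 hours at five concentrations. The concentration for 50% growth inhibition is given as GI50.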 Activity calls are given as the source filed them. No stated cut-off is given here; in the data, active = GI50 up to about 1.1 µM and inactive = higher.
Tests used:
Test in all cases: inhibition of tumour cell growth, NCI panel, 48 h
[1] = test system: COLO 205
[2] = test system: SK-OV-3
[3] = test system: 786-0
[4] = test system: OVCAR-5
[5] = test system: SF-268
[6] = test system: HCT-116
[7] = test system: SR
[8] = test system: UACC-257
[9] = test system: NCI/ADR-RES
[10] = test system: MDA-MB-231
[11] = test system: HOP-92
[12] = test system: HL-60
[13] = test system: A549
[14] = test system: A498
[15] = test system: CCRF-CEM
[16] = test system: NCI-H23
[17] = test system: SK-MEL-5
[18] = test system: HCT-15
[19] = test system: TK-10
[20] = test system: KM12

CC1CNC(c2cccc(-c3nc(-c4cccc(C5=NC(C)CN5)c4)nc(N(C)C)n3)c2)=N1 (stereo not given)
GI50 [1]: 1.2 µM (inactive) | GI50 [2]: 1.58 µM (inactive) | GI50 [3]: 1.53 µM (inactive) | GI50 [4]: 2.57 µM (inactive) | GI50 [5]: 2.06 µM (inactive) | GI50 [6]: 0.491 µM (active) | GI50 [7]: 0.45 µM (active) | GI50 [8]: 3.16 µM (inactive) | GI50 [9]: 16.5 µM (inactive) | GI50 [10]: 1.32 µM (inactive) | GI50 [11]: 3.87 µM (inactive) | GI50 [12]: 2.02 µM (inactive) | GI50 [13]: 2.69 µM (inactive) | GI50 [14]: 2.05 µM (inactive) | GI50 [15]: 0.587 µM (active) | GI50 [16]: 2.14 µM (inactive) | GI50 [17]: 2.59 µM (inactive) | GI50 [18]: 8.34 µM | GI50 [19]: 2.78 µM (inactive) | GI50 [20]: 1.67 µM (inactive)

Clc1ccc(/C=N/C23CC4CC(CC(C4)C2)C3)c(Cl)c1
GI50 [1]: > 10 µM (inactive) | GI50 [2]: > 10 µM (inactive) | GI50 [3]: > 10 µM (inactive) | GI50 [4]: > 10 µM (inactive) | GI50 [5]: > 10 µM (inactive) | GI50 [6]: > 10 µM (inactive) | GI50 [7]: 3.5 µM (inactive) | GI50 [8]: > 10 µM (inactive) | GI50 [9]: > 10 µM (inactive) | GI50 [10]: > 10 µM (inactive) | GI50 [11]: > 10 µM (inactive) | GI50 [12]: > 10 µM (inactive) | GI50 [13]: > 10 µM (inactive) | GI50 [14]: > 10 µM (inactive) | GI50 [15]: > 10 µM (inactive) | GI50 [16]: > 10 µM (inactive) | GI50 [17]: > 10 µM (inactive) | GI50 [18]: > 10 µM | GI50 [19]: > 10 µM (inactive) | GI50 [20]: > 10 µM (inactive)

CCc1nc2c(c(N(C)C)c1C(=O)OC)CCc1ccccc1-2
GI50 [1]: 18.7 µM (inactive) | GI50 [2]: 13.8 µM (inactive) | GI50 [3]: 39.5 µM (inactive) | GI50 [4]: 32.2 µM (inactive) | GI50 [5]: 47.1 µM (inactive) | GI50 [6]: 24.8 µM (inactive) | GI50 [7]: 11.4 µM (inactive) | GI50 [8]: 26.1 µM (inactive) | GI50 [9]: 29.6 µM (inactive) | GI50 [10]: 23.5 µM (inactive) | GI50 [11]: 65.2 µM (inactive) | GI50 [12]: 2.86 µM (inactive) | GI50 [13]: 31 µM (inactive) | GI50 [14]: 20.2 µM (inactive) | GI50 [15]: 2.45 µM (inactive) | GI50 [16]: 34.4 µM (inactive) | GI50 [17]: 17 µM (inactive) | GI50 [18]: 32.5 µM | GI50 [19]: 35.5 µM (inactive) | GI50 [20]: 30.9 µM (inactive)

O=C(CCOS(=O)(=O)CF)N1CCN(C(=O)CCOS(=O)(=O)CF)CC1
GI50 [1]: > 80.7 µM (inactive) | GI50 [2]: > 27.2 µM (inactive) | GI50 [3]: 28.4 µM (inactive) | GI50 [4]: > 100 µM (inactive) | GI50 [5]: 24.4 µM (inactive) | GI50 [6]: 57 µM (inactive) | GI50 [7]: 9.08 µM (inactive) | GI50 [8]: > 100 µM (inactive) | GI50 [9]: > 100 µM (inactive) | GI50 [10]: > 100 µM (inactive) | GI50 [11]: 35.6 µM (inactive) | GI50 [12]: 5.06 µM (inactive) | GI50 [13]: 59 µM (inactive) | GI50 [14]: > 100 µM (inactive) | GI50 [15]: 3.27 µM (inactive) | GI50 [16]: 29.6 µM (inactive) | GI50 [17]: 51.6 µM (inactive) | GI50 [18]: > 100 µM | GI50 [19]: > 100 µM (inactive) | GI50 [20]: > 100 µM (inactive)

CN(C)Cc1ccc(C(C)(C)C)cc1-c1cc(C(C)(C)C)ccc1CN(C)C
GI50 [1]: 19.4 µM (inactive) | GI50 [2]: > 100 µM (inactive) | GI50 [3]: 70.5 µM (inactive) | GI50 [4]: > 100 µM (inactive) | GI50 [5]: > 100 µM (inactive) | GI50 [6]: 37.7 µM (inactive) | GI50 [7]: 39 µM (inactive) | GI50 [8]: 21.6 µM (inactive) | GI50 [9]: > 100 µM (inactive) | GI50 [10]: 70.5 µM (inactive) | GI50 [11]: > 100 µM (inactive) | GI50 [12]: 86.9 µM (inactive) | GI50 [13]: 93.5 µM (inactive) | GI50 [14]: 28.2 µM (inactive) | GI50 [15]: 42.7 µM (inactive) | GI50 [16]: 77.4 µM (inactive) | GI50 [17]: 32.4 µM (inactive) | GI50 [18]: 72.3 µM | GI50 [19]: > 100 µM (inactive) | GI50 [20]: 34.3 µM (inactive)

COc1ccc(CCc2ccc3c(c2)OCO3)cc1
GI50 [1]: > 100 µM (inactive) | GI50 [2]: > 100 µM (inactive) | GI50 [3]: > 100 µM (inactive) | GI50 [4]: > 100 µM (inactive) | GI50 [5]: > 100 µM (inactive) | GI50 [6]: 36.6 µM (inactive) | GI50 [7]: 17.5 µM (inactive) | GI50 [8]: 77.1 µM (inactive) | GI50 [9]: 77.4 µM (inactive) | GI50 [10]: > 100 µM (inactive) | GI50 [11]: 36.8 µM (inactive) | GI50 [12]: 21.4 µM (inactive) | GI50 [13]: 68.9 µM (inactive) | GI50 [14]: > 100 µM (inactive) | GI50 [15]: 35.9 µM (inactive) | GI50 [16]: > 100 µM (inactive) | GI50 [17]: 34.9 µM (inactive) | GI50 [18]: 35.2 µM | GI50 [19]: > 100 µM (inactive) | GI50 [20]: 29.2 µM (inactive)

CC1OCC2OC(C)OC(C3C4=C(CC(C)(C)CC4=O)OC4=C3C(=O)CC(C)(C)C4)C2O1 (stereo not given)
GI50 [1]: > 100 µM (inactive) | GI50 [2]: > 100 µM (inactive) | GI50 [3]: > 100 µM (inactive) | GI50 [4]: > 100 µM (inactive) | GI50 [5]: > 100 µM (inactive) | GI50 [6]: > 100 µM (inactive) | GI50 [7]: > 100 µM (inactive) | GI50 [8]: > 100 µM (inactive) | GI50 [9]: > 100 µM (inactive) | GI50 [10]: > 100 µM (inactive) | GI50 [11]: > 100 µM (inactive) | GI50 [12]: > 100 µM (inactive) | GI50 [13]: > 100 µM (inactive) | GI50 [14]: > 100 µM (inactive) | GI50 [15]: > 100 µM (inactive) | GI50 [16]: > 100 µM (inactive) | GI50 [17]: > 100 µM (inactive) | GI50 [18]: > 100 µM | GI50 [19]: > 100 µM (inactive) | GI50 [20]: > 100 µM (inactive)
